The results in this text go back to US20050260733A1, “Proteases and uses thereof” (WYETH, priority 2004, published 2005).

In the experiment the test system is MAb AGG-C1. In words: Competitive inhibition ELISA validating the neoepitope specificity of MAb AGG-C1. The format is binding, mouse. Conditions: competitor 1.0-1000 nmol/ml, MAb AGG-C1 0.04 μg/ml, FIG. 5. Here is the method: Streptavidin-coated microtiter plates (Pierce, Rockford, Ill.) were coated with N-terminally biotinylated peptide aggc1 (b-aggc1) by incubating each well with 100 μl of b-aggc1 (100 ng/ml) for 1 h at room temperature. After washing 4 times with phosphate-buffered saline containing 0.01% Tween-20 (PBS-Tween), wells were blocked for 1 h at room temperature with 100 μl of PBS-Tween containing 2% BSA, followed by 4 washes with PBS-Tween.
In order to validate the neoepitope nature of MAb AGG-C1, competition mixtures (100 μl) comprised of MAb AGG-C1 (0.04 μg/ml) and 1.0-1000 nmol/ml of the synthetic peptides GGLPLPRNITEGE (SEQ ID NO:22), GGLPLPRNITEGE ARGSVILTVK-CONH2 (SEQ ID NO:23), undigested aggrecan, or ADAMTS-4 digested aggrecan were preincubated for 1 h at room temperature. Mixtures were then transferred to b-aggc1 coated wells. After a further incubation for 1 h at room temperature, the plates were washed 4 times with PBS-Tween then incubated for 1 h at room temperature with 100 μl of peroxidase-conjugated secondary goat anti-mouse IgG (1:10,000). Following 4 final washes with PBS-Tween, the wells were incubated with TMB 1 component microwell peroxidase substrate (BioFX Laboratories, Owings Mills, Md.). Color development was terminated by the addition of 0.18 M H2SO4, and the absorbance was monitored spectrophotometrically at 450 nm.
With “ADAMTS4 digested aggrecan: Bovine aggrecan digested with ADAMTS-4, used as ELISA competitor”, the “competition for MAb AGG-C1 binding to biotinylated aggc1 peptide” value (“competition for MAb AGG-C1 binding” for short) was “Dose-dependent competition”. “GGLPLPRNITEGE (listed as Homo sapiens) [Synthetic peptide whose C-terminus corresponds to E373 of aggrecan core protein]”: the “competition for MAb AGG-C1 binding” value was “Dose-dependent competition”.

As for “undigested aggrecan: Intact bovine aggrecan, used as ELISA competitor”, the “competition for MAb AGG-C1 binding” value was “did not compete”. Then “GGPLPRNITEGEARGSVILTVK [Synthetic peptide spanning the aggrecanase cleavage site]”, with “did not compete”.
